# Test results from patent US20050222130A1, “Inhibitors of RhoA kinase production/activation for relaxing the features of and/or for decontracting the skin” (L'OREAL, priority 2004, published 2005).
# System: dermal equivalent comprising a collagen matrix seeded with normal human fibroblasts
# Assay: Spontaneous contraction of attached dermal equivalent (dermo-decontracting effect)
# Format: cell-based
# Settings: for inhibition of contraction of the dermal equivalent (in words): different concentrations
# Source text: The principle of this test entails studying the dermo-decontracting effect of (R)(+)-trans-N-(4-pyridyl)-4-(1-aminoethyl)cyclohexanecarboxamide dihydrochloride (Y-27632) on a model of dermal equivalent comprising a collagen matrix seeded with normal human fibroblasts. These conditions are intended to mimic in vitro the dermal contractile phenomena that take place during facial expressions. Under these conditions, specifically, the cells spontaneously express tensile forces that induce a retraction of the collagen gel. […] Measurement of this area makes it possible to evaluate the relaxation effects of substances placed in contact beforehand with the dermal equivalent. Four series of 3 attached dermal equivalents containing normal human fibroblasts are prepared: a control series without any treatment, and three series treated with (R)(+)-trans-N-(4-pyridyl)-4-(1-aminoethyl)cyclohexanecarboxamide dihydrochloride at different concentrations. The experiment is repeated three times. The dermal equivalents are prepared as described in Asselineau et al., Exp. Cell. Res. 1985, 159, 536-539; Models in Dermatology, 1987, Vol. 33, pp. 1-7, in the following proportions: [table] The treated dermal equivalent differs from the control dermal equivalent in that variable amounts of (R)(+)-trans-N-(4-pyridyl)-4-(1-aminoethyl)cyclohexanecarboxamide dihydrochloride are added thereto. The collagen used is type I collagen (commercial solution), but a collagen of type III or IV may also be used. It is extracted from rat tails or from calf skin by acidic hydrolysis and stored in acidic medium at +4° C.; it naturally polymerizes on heating to 37° C. and on reducing the level of acidity. The collagen is predialyzed against successive baths of water+acetic acid. The protocol is as follows: 1.76×MEM medium in the presence of additives (1% glutamine, 1% nonessential amino acids, 1% sodium pyruvate, 1% fungizone and 1% penicillin/streptomycin), foetal calf serum and 0.1 N NaOH are introduced into a sterile flask tube. The fibroblasts isolated from human skin explants are then added at a concentration of 1.4×10^5 cells per 1 ml of culture medium. A volume/volume mixture of collagen in acetic acid to 1/1000 is then added slowly, against the wall of the tube so as to observe the appearance of a whitish cloud. The whole is then mixed cautiously and distributed in the wells of a 12-well culture plate (of the type Costar reference 3512) at a rate of 0.5 ml of mixture per cm^2. The culture plate is then placed in an incubator at 37° C. with 5% CO2. Once formed after polymerization of the collagen, the dermal equivalents are left adhering to the culture support for 3 days and then detached from the support in order for the contraction to be able to start. These attached dermal equivalents are removed from the incubator for the taking of the images to measure their surface area, for each point of the contraction kinetics (0, 4, 8 and 24 hours). They are immediately returned to the incubator between each measuring point. The evaluation of the spontaneous contraction of the treated dermal equivalents (treated with (R)(+)-trans-N-(4-pyridyl)-4-(1-aminoethyl)cyclohexanecarboxamide dihydrochloride) and control dermal equivalents (without (R)(+)-trans-N-(4-pyridyl)-4-(1-aminoethyl)cyclohexanecarboxamide) is performed by measuring their surface area, at different times after the start of the spontaneous contraction. To do this, a digital image is acquired for each treated or untreated dermal equivalent using a camera (Sony DXC-107P CCD-Iris camera) and the area is then calculated on each image using an image analysis system (Zeiss Axiovision 3.0). […]
# [1] = 0.1 μM, 4 hours after detaching from support
# [2] = 0.1 μM, 8 hours after detaching from support
# [3] = 0.1 μM, 24 hours after detaching from support
# [4] = 1 μM, 4 hours after detaching from support
# [5] = 1 μM, 8 hours after detaching from support
# [6] = 1 μM, 24 hours after detaching from support
SMILES,reversibility of the inhibition of contraction,reduction of percentage of contraction relative to the control [1] [%],reduction of percentage of contraction relative to the control [2] [%],reduction of percentage of contraction relative to the control [3] [%],reduction of percentage of contraction relative to the control [4] [%],reduction of percentage of contraction relative to the control [5] [%],reduction of percentage of contraction relative to the control [6] [%],inhibition of contraction of the dermal equivalent (in words),"reduction of percentage of contraction relative to the control (5 μM, 4 hours after detaching from support) [%]","reduction of percentage of contraction relative to the control (5 μM, 8 hours after detaching from support) [%]","reduction of percentage of contraction relative to the control (5 μM, 24 hours after detaching from support) [%]",effectiveness compared with Y-27632 at the same concentrations (same concentrations)
C[C@@H](N)[C@H]1CC[C@H](C(=O)Nc2ccncc2)CC1.Cl.Cl [(R)(+)-trans-N-(4-pyridyl)-4-(1-aminoethyl)cyclohexanecarboxamide dihydrochloride],reversible,6.1,6.4,7.2,20.6,24.4,29.3,dose-dependent inhibition of contraction,–,–,–,–
O=S(=O)(c1cccc2cnccc12)N1CCCNCC1 [1-(5-isoquinolinesulfonyl)homopiperazine],–,2.6,2.4,1.5,8,9.5,8.2,dose-dependent inhibition of contraction,17,19.4,22.2,less effective than
